{
  "source": "patent US12030908B2",
  "about": "“Antimicrobial compounds, compositions, and uses thereof” (Lakewood Amedex, Inc., priority 2017, dated 2024)",
  "key": {"[1]": {"test": "Body weight in the Aspergillus fumigatus lung infection model (Example 24)", "type": "in vivo, BALB/c mice", "conditions": "Part A"}, "[2]": {"system": "methicillin resistant Staphylococcus aureus (USA300)", "type": "in vivo, SKH-1 hairless mice", "conditions": "for decrease in CFU burden: 6 hours post challenge", "procedure": "SKH-1 hairless mice have the outer layer of skin cells removed by stripping with 7 applications and removals of surgical tape. Immediately following tape stripping, mice receive a topical inoculation of methicillin resistant Staphylococcus aureus (USA300) at a targeted challenge of 6.0 log10 CFU. Four hours following challenge, mice are treated with test articles or vehicle controls, and at two hours following treatment, mice have skin harvested for CFU burden enumeration.\nSKH-1 mice are obtained from Charles River Laboratories. The age of the mice on Day 0 is approximately 6-8 weeks. Only female mice are selected for the study. Animals are handled in accordance with AUP number TP-18. Mice are housed in solid-bottom micro-isolator cages on stainless steel racks. Animals are fed irradiated Teklad Global 2918 Rodent Diet and water ad libitum. Bedding is provided in the form of irradiated Teklad ⅛″ corn cob bedding 7902. Animals are maintained in a bioBubble® Clean Room which provides H.E.P.A filtered air into the bubble environment at 100 complete air changes per hour. The environment is controlled to a temperature range of 74°±5° F. and a humidity range of 30-70%. Fluorescent lighting provides illumination for 12 hours per day. Mice are acclimated for a minimum of 24 hours prior to study start. The animals are observed for general health and acceptability for use in this study. Only animals deemed healthy are included in this study.\nOn Day 0 immediately prior to infection, each mouse is anesthetized using isoflurane and the dorsal area receives 7 applications and removals of Nexcare™ (3M) surgical tape in order to remove the outermost epidermal layer of skin.\nThe challenge microorganism is prepared. Methicillin resistant Staphylococcus aureus (USA300) is grown overnight at 37° C. at ambient atmosphere trypticase soy agar plates supplemented with 5% sheep blood cells. The culture is aseptically swabbed and transferred to tubes sterile water until optical density reaches approximately 0.75 at 600 nm. The cultures are diluted to provide challenge inoculate of 6.0 log10 CFU per mouse in a volume of 100 μL. Inoculum count is estimated before inoculation by optical density and confirmed after inoculation by dilution and back count.\nOn Day 0 at 0 hours, animals are anesthetized using isoflurane, brought to a surgical plane, and infected with bacteria via topical application, spread in the tape stripped area of approximately 0.75″×0.75″. Challenge is allowed to dry slightly before mice are brought out of anesthesia.\nThe test articles are prepared in a manner to minimize endotoxin and bacterial contamination. A 10% (100 mg/mL) solution of Nu-8 is prepared in 0.9% sterile saline. A 20% Nu-8 solution for 50/50 mixture in a hydrogel vehicle (for 10% final Nu-8 concentration) is made using sterile water. Citric acid is used to adjust the solutions to pH 3.5. The test articles are stored at 4° C.\nA 0.9% sterile saline adjusted to pH 3.5 with citric acid is prepared as a vehicle/negative control and stored at room temperature. A hydrogel vehicle adjusted to pH 3.5 with citric acid is prepared as another vehicle/negative control. The hydrogel vehicle is prepared by mixing equal volumes of hydrogel and 0.9% sterile saline with final pH of the mixture adjusted to pH 3.5.\nAt exactly four hours following challenge, mice in Groups 2-5 receive a topical application of Nu-8 (in either saline or hydrogel vehicle), saline vehicle, or gel vehicle, in a volume of […] spread on the dorsal area previously stripped and inoculated with bacteria. […] Mice are housed individually following treatment until harvest time.\nMice are observed at least twice daily during the study period and are randomly assigned to experimental groups as shown in TABLE 10. At the time indicated in TABLE 10, mice are humanely euthanized via CO2 overexposure. Mice are harvested at 6 hours post challenge (2 hours post-treatment). […]"}},
  "note": "Like-named read-outs stand apart in the source and are kept apart here.",
  "data": [
    {"smiles": "CCCCOP(=O)(O)OC[C@H]1O[C@@H](n2ccc(N)nc2=O)C[C@@H]1OP(=O)(O)OCCCC", "note": "[Nu-8, sodium ((2R,3S,5R)-5-(4-amino-2-oxopyrimidin-1(2H)-yl)-3-((butoxyoxidophosphor-yl)oxy)tetrahydrofuran-2-yl)methyl butyl phosphate]", "values": [
      {"measurement": "Body Weight (g) Mean ± SD", "setting": "[1]; 3 doses, once daily for 3 days, Day 0", "result": "25.17 ± 0.75", "unit": "g"},
      {"measurement": "Body Weight (g) Mean ± SD", "setting": "[1]; 3 doses, once daily for 3 days, Day 1", "result": "24.50 ± 0.55", "unit": "g"},
      {"measurement": "Body Weight (g) Mean ± SD", "setting": "[1]; 3 doses, once daily for 3 days, Day 2", "result": "23.17 ± 0.75", "unit": "g"},
      {"measurement": "Body Weight (g) Mean ± SD", "setting": "[1]; 3 doses, once daily for 3 days, Day 3 (n = 3)", "result": "22.33 ± 0.58", "unit": "g"},
      {"measurement": "Body Weight (g) Mean ± SD", "setting": "[1]; 5 doses, once daily for 5 days, Day 0", "result": "25.33 ± 0.82", "unit": "g"},
      {"measurement": "Body Weight (g) Mean ± SD", "setting": "[1]; 5 doses, once daily for 5 days, Day 1", "result": "24.33 ± 0.52", "unit": "g"},
      {"measurement": "Body Weight (g) Mean ± SD", "setting": "[1]; 5 doses, once daily for 5 days, Day 2", "result": "23.33 ± 0.52", "unit": "g"},
      {"measurement": "Body Weight (g) Mean ± SD", "setting": "[1]; 5 doses, once daily for 5 days, Day 3 (n = 3)", "result": "22.67 ± 0.58", "unit": "g"},
      {"measurement": "Body Weight (g) Mean", "setting": "[1]; 5 doses, once daily for 5 days, Day 4 (n = 2)", "result": 22.50, "unit": "g"},
      {"measurement": "Body Weight (g) Mean", "setting": "[1]; 5 doses, once daily for 5 days, Day 5 (n = 2)", "result": 22.00, "unit": "g"},
      {"measurement": "Body Weight (g) Mean ± SD", "setting": "[1]; single dose group, Day 0", "result": "25.50 ± 0.55", "unit": "g"},
      {"measurement": "Body Weight (g) Mean ± SD", "setting": "[1]; single dose group, Day 1", "result": "24.17 ± 0.41", "unit": "g"},
      {"measurement": "change in mean body weights", "setting": "[1]; vehicle and treatment groups", "result": "Decreases in mean body weights were observed"},
      {"measurement": "decrease in CFU burden", "setting": "[2]; 10% Nu-8 in hydrogel pH 3.5, topical", "result": "~1.0", "unit": "log10 reduction"},
      {"measurement": "decrease in CFU burden", "setting": "[2]; 10% Nu-8 in saline pH 3.5, topical", "result": "~1.0", "unit": "log10 reduction"},
      {"measurement": "percentage reduction compared to the controls (FIG. 3)", "setting": "[2]; Nu-8 gel", "result": 87, "unit": "%"},
      {"measurement": "colony forming units (FIG. 1)", "setting": "[2]; Nu-8 hydrogel, two hours post treatment", "result": "approximately 40,000 CFU per square millimeter"},
      {"measurement": "reduction in bacteria vs saline and gel controls", "setting": "[2]; Nu-8 in saline or hydrogel, two hours post treatment", "result": "ten-fold"},
      {"measurement": "colony forming units (FIG. 1)", "setting": "[2]; Nu-8 in saline, two hours post treatment", "result": "approximately 30,000 CFU per square millimeter"},
      {"measurement": "percentage reduction compared to the controls (FIG. 3)", "setting": "[2]; Nu-8 saline", "result": 90, "unit": "%"},
      {"measurement": "acute adverse events associated with the treatments", "setting": "[2]; topical, 10% Nu-8 in saline or hydrogel", "result": "None of the study subjects displayed any acute adverse events"}
    ]}
  ]
}
